Test results published in patent US20090298878A1, “OXIME COMPOUNDS AND THE USE THEREOF” (priority 2006, published 2009).

target: T1, N-type calcium channel (NTCC) (Homo sapiens, UniProt Q00975); assay: FLIPR calcium mobilization assay for N-type calcium channel (differentiated IMR32 cells); format: cell-based; conditions: about 1.0 μM or less; calcium mobilization and/or electrophysiological assay
T1 construct: host or cells: IMR32 cells differentiated with dibutyryl cAMP and bromodeoxyuridine
Description: Cell maintenance and differentiation. Unless noted otherwise, cell culture reagents were purchased from Mediatech of Hemdon, Md. IMR32 cells (American Type Culture Collection, ATCC, Manassas, Va.) were routinely cultured in growth medium consisting of minimum essential medium containing 10% fetal bovine serum (FBS, Hyclone, Logan, Utah), 100 U/mL penicillin, 100 μg/mL streptomycin, 2 mM L-glutamine, 1 mM sodium pyruvate, and 1× MEM non-essential amino acids. 80-90% confluent flasks of cells were differentiated using the following differentiation medium: Growth medium plus 1 mM dibutyryl cyclic AMP (Sigma, St. Louis, Mo.), and 2.5 μM bromodeoxyuridine (Sigma). Cells were differentiated for 8 days by replacing differentiation medium every 2-3 days.
FLIPR Calcium Mobilization Assay for N-type Calcium Channel. One day prior to performing this assay, differentiated IMR32 cells were treated with 1× CellStripper, and seeded on poly-D-lysine-coated 96-well clear-bottom black plates (Becton Dickinson, Franklin Lakes, N.J.) at 200,000 cells/well. On the day of the assay, the cell plates were washed with IMR32 buffer (127 mM NaCl, 1 mM KCl, 2 mM MgCl2, 700 μM NaH2PO4, 5 mM CaCl2, 5 mM NaHCO3, 8 mM HEPES, 10 mM glucose, pH 7.4), then pre-stimulated with KCl and loaded as follows: 0.05 mL of IMR32 buffer, 0.05 mL of each compound tested diluted in IMR32 buffer containing 20 μM nitrendipine (Sigma), and 0.1 mL KCl dissolved in IMR32 buffer, plus Fluo-4 were added (3 μM final concentration, Molecular Probes, Eugene, Oreg.). Final test compound concentrations ranged from about 846 pM to about 17 μM, final nitrendipine concentration was 5 μM, and final KCl concentration was 90 mM. After 1 hour, the cells were washed twice with 0.05 mL of each compound tested in nitrendipine-containing IMR32 buffer (no KCl or Fluo-4), and then replaced with 0.1 mL of each compound tested in nitrendipine-containing IMR32 buffer. Plates were then transferred to a Fluorimetric imaging Plate Reader (FLIPR^96, Molecular Devices, Inc., Sunnyvale, Calif.) for assay. The FLIPR measured basal Fluo-4 fluorescence for 315 seconds (i.e., 5 minutes and 15 seconds), then added 0.1 mL KCl agonist dissolved in IMR32 buffer and measured fluorescence for another 45 seconds. Final test compound concentrations on the cells after FLIPR read ranged from about 846 pM to about 17 μM, final nitrendipine concentration was 5 μM, and final KCl concentration was 90 mM. Data were collected over the entire time course and analyzed using Excel, Graph Pad Prism (version 3.02, Graph Pad, San Diego, Calif.), or an in-house non-linear regression analysis software.

T1 sequence (Q00975 whole entry): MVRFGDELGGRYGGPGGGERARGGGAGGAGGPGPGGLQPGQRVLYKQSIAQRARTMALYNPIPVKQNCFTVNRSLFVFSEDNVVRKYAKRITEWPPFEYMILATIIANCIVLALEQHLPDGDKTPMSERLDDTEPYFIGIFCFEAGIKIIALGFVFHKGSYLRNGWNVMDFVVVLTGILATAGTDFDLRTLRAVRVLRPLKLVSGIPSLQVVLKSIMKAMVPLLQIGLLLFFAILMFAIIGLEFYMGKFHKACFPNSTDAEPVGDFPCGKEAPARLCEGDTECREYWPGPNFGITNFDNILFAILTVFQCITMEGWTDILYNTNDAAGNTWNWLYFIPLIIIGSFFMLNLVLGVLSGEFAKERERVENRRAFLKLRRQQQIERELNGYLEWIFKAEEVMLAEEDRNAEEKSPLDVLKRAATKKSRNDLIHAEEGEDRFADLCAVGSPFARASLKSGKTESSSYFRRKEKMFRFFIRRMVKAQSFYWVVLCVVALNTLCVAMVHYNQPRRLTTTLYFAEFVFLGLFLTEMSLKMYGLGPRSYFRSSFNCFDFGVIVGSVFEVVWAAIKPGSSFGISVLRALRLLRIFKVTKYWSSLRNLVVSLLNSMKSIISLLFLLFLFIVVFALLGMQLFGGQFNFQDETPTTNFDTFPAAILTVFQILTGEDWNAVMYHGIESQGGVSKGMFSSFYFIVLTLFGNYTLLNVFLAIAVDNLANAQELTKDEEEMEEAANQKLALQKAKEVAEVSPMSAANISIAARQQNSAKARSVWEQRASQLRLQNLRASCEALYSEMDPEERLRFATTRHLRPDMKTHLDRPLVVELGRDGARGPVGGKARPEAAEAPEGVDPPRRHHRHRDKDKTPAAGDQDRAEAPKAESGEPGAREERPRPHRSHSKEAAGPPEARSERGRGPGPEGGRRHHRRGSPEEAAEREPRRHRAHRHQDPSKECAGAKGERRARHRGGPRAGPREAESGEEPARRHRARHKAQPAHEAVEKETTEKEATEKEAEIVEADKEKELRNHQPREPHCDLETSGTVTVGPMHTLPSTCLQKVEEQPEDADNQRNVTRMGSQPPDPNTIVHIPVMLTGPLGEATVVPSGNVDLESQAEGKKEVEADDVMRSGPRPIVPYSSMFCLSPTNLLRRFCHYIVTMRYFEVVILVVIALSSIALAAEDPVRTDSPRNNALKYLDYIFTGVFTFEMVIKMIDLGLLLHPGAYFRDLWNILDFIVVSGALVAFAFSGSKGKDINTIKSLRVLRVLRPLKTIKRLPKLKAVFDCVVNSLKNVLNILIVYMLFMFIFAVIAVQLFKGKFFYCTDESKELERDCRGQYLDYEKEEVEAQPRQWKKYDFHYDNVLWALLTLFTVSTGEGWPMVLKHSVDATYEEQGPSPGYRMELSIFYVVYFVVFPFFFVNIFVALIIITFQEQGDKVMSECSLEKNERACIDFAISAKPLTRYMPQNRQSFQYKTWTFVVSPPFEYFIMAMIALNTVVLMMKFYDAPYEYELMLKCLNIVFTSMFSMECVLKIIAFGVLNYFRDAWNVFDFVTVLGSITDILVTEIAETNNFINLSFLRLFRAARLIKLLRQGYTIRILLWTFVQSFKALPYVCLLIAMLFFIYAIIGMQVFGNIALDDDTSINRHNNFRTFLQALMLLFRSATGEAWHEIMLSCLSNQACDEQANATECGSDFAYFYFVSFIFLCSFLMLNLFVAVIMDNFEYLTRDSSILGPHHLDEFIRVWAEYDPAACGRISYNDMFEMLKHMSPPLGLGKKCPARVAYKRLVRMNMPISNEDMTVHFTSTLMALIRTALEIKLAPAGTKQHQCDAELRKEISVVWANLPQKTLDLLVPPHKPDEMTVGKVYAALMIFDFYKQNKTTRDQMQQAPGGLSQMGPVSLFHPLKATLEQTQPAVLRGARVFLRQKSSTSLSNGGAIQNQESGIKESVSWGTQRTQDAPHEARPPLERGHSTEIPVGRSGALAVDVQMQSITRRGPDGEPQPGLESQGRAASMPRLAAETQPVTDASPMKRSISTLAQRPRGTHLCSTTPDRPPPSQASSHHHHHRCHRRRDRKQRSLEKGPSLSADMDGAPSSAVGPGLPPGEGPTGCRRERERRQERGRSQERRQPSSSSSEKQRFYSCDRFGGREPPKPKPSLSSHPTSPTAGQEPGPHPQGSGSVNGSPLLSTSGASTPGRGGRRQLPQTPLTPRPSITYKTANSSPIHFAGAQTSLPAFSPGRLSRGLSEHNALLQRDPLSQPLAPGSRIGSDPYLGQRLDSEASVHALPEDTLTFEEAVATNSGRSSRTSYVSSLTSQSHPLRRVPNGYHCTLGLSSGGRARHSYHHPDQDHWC

Row | SMILES | IC50
1 | CCCNc1ccc(S(=O)(=O)N2CCC(=NOCc3cccc(C(F)(F)F)c3)CC2)cn1 [Example 99] | ≤ 1 µM
2 | N#Cc1cccc(CON=C2CCN(S(=O)(=O)c3ccc(OC(F)(F)F)cc3)CC2)n1 [Example 173, 6-((1-(4-(Trifluoromethoxy)phenylsulfonyl)piperidin-4-ylideneaminooxy)methyl)picolinonitrile] | ≤ 1 µM
3 | Nc1ccccc1S(=O)(=O)N1CCC(=NOCc2cccc(C(F)(F)F)c2)CC1 [Example 85, 1-(2-Aminobenzenesulfonyl)piperidin-4-one O-(3-trifluoromethylbenzyl)oxime] | ≤ 1 µM
4 | O=S(=O)(c1ccc(OC(F)(F)F)cc1)N1CCC(=NOCC2Oc3ccccc3O2)CC1 [Example 265, 1-(4-(Trifluoromethoxy)phenylsulfonyl)piperidin-4-one O-benzo[d][1,3]dioxol-2-ylmethyl oxime] | ≤ 1 µM
5 | COc1ccc(CON=C2CCN(S(=O)(=O)c3ccc(OC(F)(F)F)cc3)CC2)cn1 [Example 144, 1-(4-Trifluoromethoxybenzenesulfonyl)piperidin-4-one O-(6-methoxypyridin-3-ylmethyl)oxime] | ≤ 1 µM
6 | O=S(=O)(c1cccc(C(F)(F)F)c1)N1CCC(=NOCc2cccc(C(F)(F)F)c2)CC1 [Example 56, 1-(3-Trifluoromethylbenzenesulfonyl)piperidin-4-one O-(3-trifluoromethylbenzyl)oxime] | ≤ 1 µM
7 | O=S(=O)(c1ccc(OC(F)(F)F)cc1)N1CCC(=NOC(c2ccc(F)cc2)c2ccc(F)cc2)CC1 [Example 119, 1-(4-Trifluoromethoxybenzenesulfonyl)piperidin-4-one O-[bis(4-fluorophenyl)methyl]oxime] | ≤ 1 µM
8 | COc1cc(CON=C2CCN(S(=O)(=O)c3ccc(OC(F)(F)F)cc3)CC2)nc2ccccc12 [Example 189, 1-(4-(Trifluoromethoxy)phenylsulfonyl)piperidin-4-one O-(4-methoxyquinolin-2-yl)methyl oxime] | ≤ 1 µM
9 | O=S(=O)(c1ccc(OC(F)(F)F)cc1)N1CCC(=NOC[C@@H]2Cc3ccccc3N2)CC1 [Example 263, (S)-1-(4-(trifluoromethoxy)phenylsulfonyl)piperidin-4-one O-indolin-2-ylmethyl oxime] | ≤ 1 µM
10 | N#Cc1cccc(CON=C2CCN(S(=O)(=O)c3ccc(OC(F)(F)F)cc3)CC2)c1 [Example 121, 3-[1-(4-Trifluoromethoxybenzenesulfonyl)piperidin-4-ylideneaminooxymethyl]benzonitrile] | ≤ 1 µM
11 | O=S(=O)(c1ccc(OC(F)(F)F)cc1)N1CCC(=NOCc2cc(Cl)ccn2)CC1 [Example 118, 1-(4-Trifluoromethoxybenzenesulfonyl)piperidin-4-one O-(4-chloropyridin-2-ylmethyl)oxime] | ≤ 1 µM
12 | Cn1c(CON=C2CCN(S(=O)(=O)c3ccc(OC(F)(F)F)cc3)CC2)nc2ccccc21 [Example 160, 1-(4-(Trifluoromethoxy)phenylsulfonyl)piperidin-4-one O-(1-methyl-1H-benzo[d]imidazol-2-yl)methyl oxime] | ≤ 1 µM
13 | N#Cc1cccc(CON=C2CCN(S(=O)(=O)c3cccc(C#N)c3)CC2)c1 [Example 282, 3-(4-(3-Cyanobenzyloxyimino)piperidin-1-ylsulfonyl)benzonitrile] | ≤ 1 µM
14 | N#Cc1cccc(CON=C2CCN(S(=O)(=O)c3ccc(OC(F)F)cc3)CC2)c1 [Example 197, 3-((1-(4-(Difluoromethoxy)phenylsulfonyl)piperidin-4-ylideneaminooxy)methyl)benzonitrile] | ≤ 1 µM
15 | CCCCc1ccc(S(=O)(=O)N2CCC(=NOC(c3ccc(F)cc3)c3ccc(F)cc3)CC2)cc1 [Example 231, 1-(4-Butylphenylsulfonyl)piperidin-4-one O-bis(4-fluorophenyl)methyl oxime] | ≤ 1 µM
16 | CCCCc1ccc(S(=O)(=O)N2CCC(=NOCc3cccc(OC)c3)CC2)cc1 [Example 80, 1-(4-Butylbenzenesulfonyl)piperidin-4-one O-(3-methoxybenzyl)oxime] | ≤ 1 µM
17 | N#Cc1cccc(CON=C2CCN(S(=O)(=O)c3ccc(C(F)(F)F)cc3)CC2)c1 [Example 280, 3-((1-(4-(Trifluoromethyl)phenylsulfonyl)piperidin-4-ylideneaminooxy)methyl)benzonitrile] | ≤ 1 µM
18 | O=S(=O)(c1ccc(F)cc1)N1CCC(=NOCc2cccc(C(F)(F)F)c2)CC1 [Example 62, 1-(4-Fluorobenzenesulfonyl)piperidin-4-one O-(3-trifluoromethylbenzyl)oxime] | ≤ 1 µM
19 | O=S(=O)(c1ccc(OCC2CC2)cc1)N1CCC(=NOCc2cccc(C(F)(F)F)c2)CC1 [Example 95, 1-(4-Cyclopropylmethoxybenzenesulfonyl)piperidin-4-one O-(3-trifluoromethylbenzyl)oxime] | ≤ 1 µM

The remaining lines, values ahead:

Row | IC50 | SMILES
20 | ≤ 1 µM | N#Cc1cccc(C(CN2CCOCC2)ON=C2CCN(S(=O)(=O)c3ccc(OC(F)(F)F)cc3)CC2)c1 (stereo not shown) [Example 302, 3-(2-Morpholino-1-(1-(4-(trifluoromethoxy)phenylsulfonyl)piperidin-4-ylideneaminooxy)ethyl)benzonitrile]
21 | ≤ 1 µM | O=S(=O)(c1ccccc1OC(F)(F)F)N1CCC(=NOC(c2ccc(F)cc2)c2ccc(F)cc2)CC1 [Example 289, 1-(2-(Trifluoromethoxy)phenylsulfonyl)piperidin-4-one O-bis(4-fluorophenyl)methyl oxime]
22 | ≤ 1 µM | O=S(=O)(c1ccsc1)N1CCC(=NOC(c2ccc(F)cc2)c2ccc(F)cc2)CC1 [Example 287, 1-(Thiophen-3-ylsulfonyl)piperidin-4-one O-bis(4-fluorophenyl)methyl oxime]
23 | ≤ 1 µM | O=S(=O)(c1ccc(NC2CC2)nc1)N1CCC(=NOCc2cccc(C(F)(F)F)c2)CC1 [Example 321, 1-(6-Cyclopropylaminopyridine-3-sulfonyl)piperidin-4-one O-(3-trifluoromethylbenzyl)oxime]
24 | ≤ 1 µM | CC(C)OCC(ON=C1CCN(S(=O)(=O)c2ccc(OC(F)(F)F)cc2)CC1)c1cccc(C#N)c1 (stereo not shown) [Example 303, 3-(2-Isopropoxy-1-(1-(4-(trifluoromethoxy)phenylsulfonyl)piperidin-4-ylideneaminooxy)ethyl)benzonitrile]
25 | ≤ 1 µM | O=C(CN1CCC(=NOCc2cccc(C(F)(F)F)c2)CC1)NCc1cc(C(F)(F)F)cc(C(F)(F)F)c1 [Example 329, N-(3,5-Bis(trifluoromethyl)benzyl)-2-(4-(3-(trifluoromethyl)benzyloxyimino)piperidin-1-yl)acetamide]
26 | ≤ 1 µM | O=S(=O)(c1cccnc1)N1CCC(=NOC(c2ccc(F)cc2)c2ccc(F)cc2)CC1 [Example 291, 1-(Pyridin-3-ylsulfonyl)piperidin-4-one O-bis(4-fluorophenyl)methyl oxime]
27 | ≤ 1 µM | O=S(=O)(c1cccc(OC(F)(F)F)c1)N1CCC(=NOC(c2ccc(F)cc2)c2ccc(F)cc2)CC1 [Example 290, 1-(3-(Trifluoromethoxy)phenylsulfonyl)piperidin-4-one O-bis(4-fluorophenyl)methyl oxime]

same assay, conditions: calcium mobilization in vitro assay, N-type calcium channel blockers

Row | IC50 | SMILES
28 | 1.1 µM | O=C(CN1CCC(=NOC(c2ccc(F)cc2)c2ccc(F)cc2)CC1)Nc1cc(C(F)(F)F)cc(C(F)(F)F)c1 [Example 328, 2-(4-(Bis(4-fluorophenyl)methoxyimino)piperidin-1-yl)-N-(3,5-bis(trifluoromethyl)phenyl)acetamide]
